According to patent US11371097B2, “Articles for diagnosis of liver fibrosis” (THE GOVERNMENT OF THE UNITED STATES, as represented by THE …, priority 2015, dated 2022):
Values joined by “and” are separate entries in the source; they are usually repeats but may differ in a detail not shown here. Equal values may be shown once. Read-outs that look alike come from different tables or passages of the source.

Columns and labels:
liver = assay type: in vivo, Male Sprague-Dawley rats
Method: All chemical compounds were diluted in corn oil (CAS No. 8001-30-7) (MP Biomedicals, LLC (Solon, Ohio)). The dose volume was 5 mL/kg. Doses were selected based on doses published in the DrugMatrix database, the National Toxicology Program reports, and ATSDR reports.
In vivo rat experiments were performed at Integrated Laboratory Systems (ILS, Research Triangle Park, NC). ILS's Institutional Animal Care and Use Committee approved all experimental procedures. Research was conducted in compliance with the Animal Welfare Act, and other Federal statutes and regulations relating to animals and experiments involving animals and adheres to principles stated in the “Guide for Care and Use of Laboratory Animals” as prepared by the Committee on Care and Use of Laboratory Animals of the Institute of Laboratory Animal Resources, National Research Council in facilities that are fully accredited by the Association for Assessment and Accreditation of Laboratory Animal Care, International. Male Sprague-Dawley rats (CD IGS [CRL:CD (SD)]) were purchased from Charles River Laboratories (Stone Ridge, N.Y.). Rats weighing 215-245 g (8 weeks old) were used. Briefly, rats were housed two per cage with a rat tunnel enrichment device (Bio-Serve, Frenchtown, N.J.). Rats were fed a Purina Rodent Diet No. 5002 (Ralston Purina Co., St. Louis, Mo.), supplied ad libitum. Animals received reverse osmosis-treated tap water (City of Durham, N.C.) ad libitum, which was changed at least once weekly. Controls in the animal rooms were set to maintain temperatures between 20-In vivo rat experiments were performed at Integrated Laboratory Systems (ILS, Research Triangle Park, NC). ILS's Institutional Animal Care and Use Committee approved all experimental procedures. Research was conducted in compliance with the Animal Welfare Act, and other Federal statutes and regulations relating to animals and experiments involving animals and adheres to principles stated in the “Guide for Care and Use of Laboratory Animals” as prepared by the Committee on Care and Use of Laboratory Animals of the Institute of Laboratory Animal Resources, National Research Council in facilities that are fully accredited by the Association for Assessment and Accreditation of Laboratory Animal Care, International. Male Sprague-Dawley rats (CD IGS [CRL:CD (SD)]) were purchased from Charles River Laboratories (Stone Ridge, N.Y.). Rats weighing 215-245 g (8 weeks old) were used. Briefly, rats were housed two per cage with a rat tunnel enrichment device (Bio-Serve, Frenchtown, N.J.). Rats were fed a Purina Rodent Diet No. 5002 (Ralston Purina Co., St. Louis, Mo.), supplied ad libitum. Animals received reverse osmosis-treated tap water (City of Durham, N.C.) ad libitum, which was changed at least once weekly. Controls in the animal rooms were set to maintain temperatures between 20-25° C. with a relative humidity of 30-70% and a 12-hour light/12-hour dark cycle, lights on at 6:00 AM. Clinically healthy animals were assigned to dose groups using a procedure that stratifies animals across groups by body weight such that mean body weight of each group was not statistically different from any other group using analysis of variance (Statistical Analysis System version 9.2, SAS Institute, Cary, N.C.). Animals were dosed by oral gavage for five consecutive days (+10 minutes from the previous day's dose administration time). Volume was based upon daily body weight.
Animals were observed cageside one hour following daily dose administration, then 1-2 times per day during dosing regimens. Body weights were measured daily prior to dose administration, and prior to euthanasia. Twenty-four hours after the final dose administration, animals were anesthetized with isoflurane then euthanized by exsanguination followed by decapitation. Livers were harvested at necropsy and weighed to within 0.1 g. One half of the left lobe of the liver was fixed in 10% formalin. […]

[1] = system: 67 genes on the fibrosis gene panel; experiment: Multiplexed fibrosis gene panel (QuantiGene 2.0 Plex / Bioplex) on liver RNA
Method: mRNA is isolated and purified from lysed tissue biopsy specimens. The target mRNA is incubated with beads conjugated to capture probes (each probe is an oligonucleotides specific for one of the genes in the panel). The target is hybridized to the probe by a capture extender-capture probe interaction. Specific mRNA targets hybridize overnight to the respective beads. The signal is amplified by incubating mRNA-capture probe pairs by affixing an amplifier affixed to a biotinylated label probe. Streptavidin-conjugated phycoerythrin (SAPE) is bound to the biotinylated probe to amplify the signal. The signal is detected and quantified by Bioplex suspension array instrumentation, which measures the SAPE fluorescence signal proportional to the amount of mRNA transcripts captured by the bead.
Candidate genes identified by co-expression modules and pathway/network approaches were fabricated into a custom gene panel using a commercial source (the QuantiGene 2.0 Plex assay, Affymetrix, Santa Clara, Calif.). A total of 71 genes plus 3 housekeeping genes were selected. Using 150 ng RNA input, samples were processed following manufacturer's instructions for purified RNA with use of the HandHeld Magnetic Plate Washer. Plates were read immediately following the final wash using the BioPlex 200 instrument (BioRad, Hercules, Calif.). The following parameters were set on the BioPlex instrument: sample size=100 μL; DD Gate=5,000-25,000; Timeout=45 sec; Bead Event/Bead Region=100.
For each sample, the average signal intensity was determined as recommended by the manufacturer. Duplicates were averaged. The average background signal for each gene was subtracted. Assay limit of detection was determined by adding three standard deviations of assay background signals to the average intensity of the background control wells. All intensities lower than the limit of detection for each probe was set to one unit above the probe's limit of detection. Probes with all intensities below the assay limit of detection were removed from the final analysis. The test gene signal was divided by the average intensities of the three normalization genes (Gapdh, Hprt1, Ppib). For each test gene, the fold change was calculated by dividing the normalized value for the treated samples by the normalized value of the vehicle-treated controls. Fold changes were plotted as log2 fold change. Gene expression data were imported into Partek Genomics Suite 6.0 (Partek, Inc., St. Louis, Mo.). Principal component analysis was used for multivariate interpretation to determine sources of variation across sample groups (Joliffe I T, Morgan B J. Principal component analysis and exploratory factor analysis. Statistical methods in medical research 1992; 1(1):69-95). Differentially expressed genes were determined by analysis of variance (ANOVA) with contrasts, setting the ANOVA factors as toxicant and the histopathological endpoint of fibrosis (any score >0). ANOVA variables were fibrosis score 0 (none) vs. score of >0 (minimal, mild, moderate, and marked). For hierarchical biclustering, differentially expressed genes were standardized by setting the genes expressed to a mean of zero and scaling to a standard deviation of one. Euclidean geometry was used to cluster row and column dissimilarity using a method of average linkage.
Chemical-dose groups were down-selected based on histopathology to conform to the 96-well assay format of the multiplexed panel of presumptive fibrosis genes. Three of the four dose groups were evaluated for the fibrogenic chemicals allyl alcohol and 4,4′-methylenedianiline. A single dose was selected with group-matched vehicle controls for each of the remaining chemicals. […] The highest dose of bromobenzene was selected because the vacuolation pathology was only observed at this dose.
Isolated liver RNA was incubated with microbead-bound capture probes specific for the 71 presumptive fibrogenic genes and three housekeeping normalization genes.

[2] = histopathology score, individual animals, Carbon Tetrachloride 200, Bromobenzene 785, Dexamethasone 1 mg/kg
[3] = liver RNA, individual animals, Carbon Tetrachloride 200, Bromobenzene 785, Dexamethasone 1 mg/kg
[4] = liver, relative to the other pathologies
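Throughout, for Cytoplasmic Alteration: Severity grades from None 0% through Minimal Mild Moderate to Marked over 80% tissue affected.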
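Throughout, for Inflammation: Severity grades from None 0% through Minimal Mild Moderate to Marked over 80% tissue affected.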
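Throughout, for vacuolation: Severity grades from None 0% through Minimal Mild Moderate to Marked over 80% tissue affected.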

## Brc1ccccc1 [bromobenzene]
liver; across dose groups, five days (figure legend)
  Combined histopathological scores as percent of animals with pathology: dose-dependent increase in severe pathology
liver; any dose
  Histopathological evidence of bile duct hyperplasia or fibrosis: did not cause histopathological evidence of bile duct hyperplasia or fibrosis at any dose
liver; exposures on the gene panel (FIG. 9 legend)
  Histopathological evidence of vacuolation and/or glycogen accumulation: correlated with histopathological evidence of vacuolation and/or glyocgen accumulation
liver; highest dose
  Vacuolation: varying degrees of vacuolation in all experimental animals
liver; [2]
  Bile Duct Hyperplasia and Fibroplasia: 0
  Cytoplasmic Alteration: 1 (2×) and 2 and 3
  Inflammation: 1 (3×) and 2
  Vacuolation: 2 and 3 (2×) and 1
[1]; liver
  Pcolce expression levels compared with fibrogenic compounds: anti-correlated with corresponding gene expression levels induced by 4,4′-methylenedianiline and allyl alcohol
[1]; [3]
  Differential Expression of A2m: −4.054 and −4.444 and −2.844 and −1.670
  Differential Expression of Angptl3: −0.864 and −1.104 and −0.499 and −0.518
  Differential Expression of Anxa2: 1.771 and 1.226 and 1.391 and 0.783
  Differential Expression of Apoc: −0.325 and −0.372 and −0.172 and −0.338
  Differential Expression of Arf6: 0.324 and 0.475 and 0.461 and 0.239
  Differential Expression of Arpc1b: −0.171 and −0.454 and −0.337 and −0.315
  Differential Expression of Arrb1: −1.220 and −1.482 and −0.627 and −2.254
  Differential Expression of C1qb: −0.465 and −0.014 and 0.309 and 0.018
  Differential Expression of CD9: −0.072 and −0.052 and 0.416 and 0.476
  Differential Expression of CD53: −0.045 and −0.339 and 0.303 and −0.440
  Differential Expression of CP: −1.055 and −0.969 and −0.530 and −1.250
  Differential Expression of Capg: −0.835 and −0.762 and 0.053 and −1.140
  Differential Expression of Ccl2: −0.790 and −1.244 and −1.328 and −1.622
  Differential Expression of Col1a1: −0.659 and −0.336 and 0.149 and −0.231
  Differential Expression of Col1a2: −0.901 and −0.686 and −0.378 and −0.731
  Differential Expression of Col4a1: −0.512 and −0.387 and −0.163 and −0.340
  Differential Expression of Col5a2: −0.708 and −0.778 and −0.542 and −0.877
  Differential Expression of Ctgf: −1.387 and −1.037 and −0.649 and −0.389
  Differential Expression of Cxcl1: −0.610 and −0.492 and −0.386 and −0.930
  Differential Expression of Cxcl12: −2.564 and −2.540 and −1.640 and −2.717
  Differential Expression of Cxcl16: −0.140 and −1.150 and −0.275 and −0.468
  Differential Expression of Cyba: −0.761 and −0.590 and 0.049 and −0.752
  Differential Expression of Cyp2c11: −7.760 and −8.696 and −7.411 and −6.882
  Differential Expression of Dsc2: 0.800 and 0.827 and 0.610 and 0.624
  Differential Expression of Fam102b: −0.808 and −0.338 and −0.148 and −0.780
  Differential Expression of Fam105a: −0.461 and −0.047 and 0.188 and −0.207
  Differential Expression of Fbn1: −1.303 and −1.090 and −0.632 and −1.013
  Differential Expression of Fn1: −1.880 and −1.522 and −1.313 and −1.481
  Differential Expression of Fstl1: −1.078 and −0.899 and −0.423 and −1.140
  Differential Expression of Fxyd5: −0.189 and −0.159 and 0.283 and −0.184
  Differential Expression of Gpnmb: 1.906 and 1.987 and 2.373 and 1.454
  Differential Expression of Igfals: −2.524 and −2.336 and −2.083 and −3.007
  Differential Expression of Igfbp1: 3.275 and 3.897 and 0.758 and 3.616
  Differential Expression of Igfbp2: 0.339 and 0.249 and −0.180 and 0.559
  Differential Expression of Igfbp3: −2.127 and −1.911 and −1.316 and −1.713
  Differential Expression of Itga1: −0.672 and −0.525 and 0.257 and −0.880
  Differential Expression of Itgb2: −0.722 and −0.914 and −0.301 and −1.032
  Differential Expression of Lame2: −0.725 and −1.692 and −0.854 and −1.188
  Differential Expression of Lbp: 0.157 and 0.036 and 0.207 and −0.066
  Differential Expression of Len2: −0.682 and −0.719 and −0.661 and −1.007
  Differential Expression of Lgals1: −0.856 and −0.388 and −0.455 and −0.084
  Differential Expression of Lgals3: 1.367 and 0.936 and 1.432 and 0.867
  Differential Expression of Lgals3bp: −0.415 and −0.105 and 0.126 and −0.427
  Differential Expression of Lox: −1.197 and −1.023 and −0.699 and −0.615
  Differential Expression of Lrp1: −1.297 and −1.003 and −0.323 and −1.011
  Differential Expression of Lum: −0.152 and −0.296 and −0.116 and −0.530
  Differential Expression of Mmp2: −0.086 and 0.177 and 0.235 and −0.151
  Differential Expression of Nid1: −0.460 and −0.132 and 0.014 and −0.579
  Differential Expression of Pcolce: −1.230 and −0.974 and −0.145 and −1.087
  Differential Expression of Pkm2: −0.142 and −0.085 and 0.069 and −0.110
  Differential Expression of Plat: 0.202 and 0.005 and 0.027 and 0.084
  Differential Expression of Plau: −1.049 and −0.402 and −0.470 and −1.553
  Differential Expression of Plod2: −0.446 and −0.410 and −0.613 and −0.623
  Differential Expression of RT1-DMa: −0.569 and −0.589 and 0.149 and −0.606
  Differential Expression of RT1-Da: −0.205 and −0.563 and 0.533 and −0.554
  Differential Expression of S100A6: −0.521 and 0.005 and −0.682 and 0.207
  Differential Expression of S100A11: −0.356 and −0.292 and 0.061 and −0.441
  Differential Expression of Serpine1: 0.153 and 0.825 and −0.550 and 0.552
  Differential Expression of Serping1: −1.107 and −0.925 and −0.627 and −0.678
  Differential Expression of Slc25a24: −0.143 and 0.149 and 0.189 and −0.325
  Differential Expression of Sod2: 0.200 and −0.035 and 0.134 and 0.187
  Differential Expression of TagIn2: −0.669 and −0.625 and 0.147 and −0.816
  Differential Expression of Tgfb1: −0.596 and −0.528 and −0.330 and −0.639
  Differential Expression of Timp1: −0.428 and −0.191 and −0.231 and −0.056
  Differential Expression of Vhl: 0.043 and −0.096 and −0.334 and −0.363
  Differential Expression of Vim: −0.148 and −0.045 and −0.109 and −0.327
  Differential Expression of Vtn: −1.353 and −1.261 and −0.746 and −0.854
[1]; liver, 67-gene panel, 1.5-fold threshold
  Panel genes downregulated (and upregulated in fibrogenic chemical-dose groups): 12 genes
[1]; [4]
  A2m expression: downregulated
  Lcn2 expression: downregulated
  Pcolce expression: downregulated
